Assay results from patent US8840924B2, “Compositions and methods of making rapidly dissolving ionically masked formulations” (NEOS Therapeutics, LP, priority 2005, dated 2014).

Assays:
[1] = Dissolution profile of capsule (release of pseudoephedrine and chlorpheniramine); assay type: physicochemical; details: Table 4, capsules
Excerpt: In addition the composition may be in the form of a capsule. Below is a list of actual assay results for one example of the present invention when in the form of a capsule.

[2] = Dissolution profile of chewable tablet (release of pseudoephedrine and chlorpheniramine); assay type: physicochemical
Excerpt: Below is a list of actual assay results for one example of the present invention with the composition listed as formula II above.
Below is a list of assay results for one example of the present invention with the composition listed as formula II above.

[3] = Table 1, chewable tablet, composition formula II
[4] = Table 2, after Example III, text says formula II
[5] = Table 3, composition listed as formula II

CN(C)CCC(c1ccc(Cl)cc1)c1ccccn1 (stereo not drawn) [Chlorpheniramine]
release, 90 min (%) [1]: 21.9%
release, 3 Hr (%) [1]: 35.4%
release, 6 Hr (%) [1]: 55.2%
release, 12 Hr (%) [1]: 78.6%
release, 30 min (%) [2, 3]: 35.1%
release, 1 Hr (%) [2, 3]: 42.7%
release, 3 Hr (%) [2, 3]: 51.6%
release, 8 Hr (%) [2, 3]: 60.8%
release, 30 min (%) [2, 4]: 36.4%
release, 1 Hr (%) [2, 4]: 42.1%
release, 3 Hr (%) [2, 4]: 51.0%
release, 8 Hr (%) [2, 4]: 60.7%
release, 30 min (%) [2, 5]: 40.1%
release, 1 Hr (%) [2, 5]: 45.1%
release, 3 Hr (%) [2, 5]: 53.3%
release, 8 Hr (%) [2, 5]: 62.1%

CN[C@@H](C)[C@@H](O)c1ccccc1 [Pseudoephedrine]
release, 90 min (%) [1]: 34.8%
release, 3 Hr (%) [1]: 54.1%
release, 6 Hr (%) [1]: 75.4%
release, 12 Hr (%) [1]: 91.7%
release, 30 min (%) [2, 3]: 27.6%
release, 30 min (%) ([2]; Table 1, chewable tablet, composition formula II, listed as pseudoephedrine): 26.7%
release, 1 Hr (%) [2, 3]: 37.8%
release, 3 Hr (%) [2, 3]: 59.4%
release, 8 Hr (%) [2, 3]: 82.0%
release, 30 min (%) [2, 4]: 27.0%
release, 1 Hr (%) [2, 4]: 36.3%
release, 3 Hr (%) [2, 4]: 53.0%
release, 8 Hr (%) [2, 4]: 78.4%
release, 30 min (%) [2, 5]: 29.2%
release, 1 Hr (%) [2, 5]: 39.7%
release, 3 Hr (%) [2, 5]: 61.2%
release, 8 Hr (%) [2, 5]: 85.2%
